# According to patent US9029127B2, “Method of degrading TBP using a photosynthetic bacterial strain” (priority 2003, dated 2015):
# Tests used:
# Serratia odorifera sp. = assay: Effect of carbon monoxide on growth and TBP degradation of Serratia odorifera; type: cell-based; details: aerobiosis; for effect of CO on growth: Tsb medium
# [1] = tested on: Rp. palustris CGA009 (ATCC BAA-98); assay: Effect of the cytochrome P450 inhibitor carbon monoxide on growth and TBP degradation of Rp. palustris; details: for effect of CO on growth: photosynthetic conditions, Hutner medium
# [2] = tested on: proteins extracted from Rp. palustris CGA009; type: biochemical, Rhodopseudomonas palustris
# Rp. palustris = assay: Growth of wild-type Rp. palustris in the presence of gentamycin; type: cell-based, Rhodopseudomonas palustris; details: gentamycin 50 μg·ml^−1
# Rp. palustris ΔpRpa1 = type: cell-based, Rhodopseudomonas palustris
compound,measurement,setting,value
"[C-]#[O+] [CO, carbon monoxide]",effect of CO on TBP degradation yield,Serratia odorifera sp.; 2 mM TBP,does not significantly modify
same,effect of CO on growth,Serratia odorifera sp.; 2 mM TBP present,nor does it affect the growth
same,effect of CO on growth,Serratia odorifera sp.; TBP absent,does not affect the growth
same,effect of CO on growth,[1]; 2 mM TBP present,greatly reduced
same,effect of CO on growth,[1]; TBP absent,does not affect the growth
same,effect of CO on TBP degradation,"[1]; residual TBP after 21 days of culture, 2 mM TBP",considerable decrease in TBP degradation
Cc1cc2c(cc1C)N(C[C@H](O)[C@H](O)[C@H](O)COP(=O)(O)OP(=O)(O)OC[C@H]1O[C@@H](n3cnc4c(N)ncnc43)[C@H](O)[C@@H]1O)c1[nH]c(=O)[nH]c(=O)c1N2 [FADH2],effect of cofactor on TBP degradation,[2],does not significantly enhance
NC(=O)C1=CN([C@@H]2O[C@H](COP(=O)(O)OP(=O)(O)OC[C@H]3O[C@@H](n4cnc5c(N)ncnc54)[C@H](O)[C@@H]3O)[C@@H](O)[C@H]2O)C=CC1 [NADH],effect of cofactor on TBP degradation,[2],does not significantly enhance
gentamycin,resistance of the strain to the antibiotic,Rp. palustris,naturally resistant
same,growth in the presence of the antibiotic,Rp. palustris ΔpRpa1,grows in the presence of this antibiotic
